Source: patent publication US6818621B2, “Osteopontin-derived chemotactic and inhibitory agents and uses therefor” (Children's Medical Center Corporation, priority 1999, dated 2004)
Where no end group is shown, it is not given here.

Assays:
[1] = system: MDA-MB-231 cells (CD44+ human breast adenocarcinoma cells); experiment: Chemotactic chamber (Boyden) assay, migration through polycarbonate filters; assay type: cell-based; details: Table 4; cells migrating in response to peptide divided by cells migrating in response to buffer
Description: Each peak was then tested for mediation of chemotaxis or for its ability to inhibit OPN mediated chemotaxis using the chemotactic assay as follows (see e.g., Weber et al. (1996) Science 271:509-512). Briefly, uncoated polycarbonated filters (pore size […] ) were used to separate the upper and lower chambers of chemotactic wells. 1×10^3 MDA-MB-231 cells (CD44^+human breast adenocarcinoma cells) were added to the upper chamber and incubated in the presence or absence of the indicated 50 pmols peptide. After 4 hours, the filters were removed, fixed in methanol arid stained with hematoxylin and eosin. Cells which have responded to the peptide, migrate to various areas of the lower surface and can be counted microscopically. Each data point is reported as the mean number of migrating cells per random high power field.
Peptide 51 was identified as being chemotactic. The peptide was sequenced using a gas-phase sequenator and determined to have the sequence LVLDPK (SEQ ID NO:1). To confirm that chemotaxis was due to this peptide, a 16 amino acid peptide spanning the chemotactic sequence in OPN was synthesized and tested for its chemotactic properties. The resulting peptide, SP64 has the sequence KFHSHKDKLVLDPKSK (SEQ ID NO:2) and containing the chemotactic sequence from residues 9-14. 2×10^4 MDA-MB-231 cells were assayed for chemotactic response to the indicated peptides as described above. Each data point is reported as the mean number of migrating cells per six random high powered fields ± standard error of the mean. Each experiment was repeated four times.
To test the amino acid specificity for chemotactic response several substitutions were created in the chemotactic sequence and the new peptides tested for their ability to induce chemotaxis. Data are expressed as migratory index (cells migrating in response to peptide/cells migration in response to LVLDPK, SEQ ID NO:1).
(§1) To evaluate the potential of peptide analogues to inhibit OPN induced chemotaxis, 100 nmoles of peptide was added to the lower compartment and the response of these cells to OPN was determined as described. MI(buffer) was calculated by dividing the number of cells migrating in response to peptide by the number of cells migrating in response to buffer. MI(inhibitory) equals the number of cells migrating towards OPN in the presence of buffer divided by the number migrating towards OPN in the presence of peptide.

Caspase 8 = experiment: FLICE/Caspase-8 Fluorometric Protease Assay; assay type: cell-based, human; details: 100 nM, 12 hours, MDA-MB-231 cells
Description: (§2) One million MDA-MB-231 cells were incubated with 100 nM of the OPN, LVVDPK (SEQ ID NO:8), Ac-MLDP (SEQ ID NO:23) or Ac-HKDKMLDP (SEQ ID NO:24) in DME containing 10% FBS in a humidified atmosphere of 5% CO2 at […]. After 12 hours, Caspase 8 and the % of apoptotic cells were determined. Caspase was determined by a fluorescent assay using Chemicon's FLICE/Caspase-8 Fluorometric Protease Assay Kit as described by the manufacturers. Apoptosis was determined using TUNEL using the “In situ Cell Death Detection Kit” (Boehringer-Mannheim, Germany).

MDA-MB-231 cells [2] = experiment: Inhibition of OPN induced chemotaxis in the chemotactic chamber assay; assay type: cell-based, human; details: Table 4; 100 nmoles of peptide; cells migrating towards OPN in presence of buffer divided by number migrating towards OPN in presence of peptide
Description: as §1

[3] = system: Peritoneal macrophages, fibroblasts or osteoblasts; experiment: Apoptosis of non-tumor cells treated with PepM; assay type: cell-based
MDA-MB-231 cells [4] = experiment: Apoptosis by TUNEL (In situ Cell Death Detection Kit); assay type: cell-based, human; details: 100 nM, 12 hours; for increase in apoptosis as compared to OPN: TUNEL
Description: as §2

breast tumor cells = experiment: Nitric oxide production, nitrate in culture supernatants (Griess reagents); assay type: cell-based; details: 12 hours after incubation
Description: The production of nitric oxide (NO) by the breast tumor cells was assessed 12 hours after incubation in the presence of pepL by measuring the accumulation of nitrate in culture supernatants. Griess reagents were used as described by Hwang et al. (1993).

[5] = system: cells recruited into the peritoneum; experiment: In vivo chemotaxis after injection of peptide into the peritoneal cavity, lavage and flow cytometry; set-up: species or system C57 black mice; details: coinjected with the chemotactic agent

Substance | MI buffer [1] | increase In Caspase 8 activity (Caspase 8) [%] | MI inhibitory (MDA-MB-231 cells [2]) | apoptosis of non-tumor cells [3] | apoptosis (in words) (MDA-MB-231 cells [4]) | increase in apoptosis as compared to OPN (MDA-MB-231 cells [4]) [%] | NO production (breast tumor cells) | effect on chemotactic response to OPN of LVLDPK in vivo [5]
Acetyl-HKDKMLDP (Ac-HKDKMLDP) [pepM] | 0.8 | ~80 | 2 | did not undergo apoptosis | activation of apoptosis | ~120 | – | –
Acetyl-MLDP (Ac-MLDP) [pepL] | 1 | ~65 | 2 | – | activation of apoptosis | 80 | increased NO production | totally abolished the chemotactic response
